{"source": "ChEMBL document CHEMBL3885881", "about": "“DrugMatrix”", "organism": "Rattus norvegicus", "assay": "DrugMatrix - Regimen: Daily Repeat", "assay_type": "toxicity, organism-based, Sprague-Dawley", "set-up": "regimen Daily Repeat, gender Male, age 6-8 weeks", "settings": "in vivo, po, 1500 mg/kg, route oral GAVAGE, dose level High, vehicle .5 % CMC; for ABSOLUTE BASOPHIL / ABSOLUTE EOSINOPHIL / ABSOLUTE LYMPHOCYTE / ABSOLUTE MONOCYTE / ABSOLUTE SEGMENTED NEUTROPHIL / BASOPHIL / EOSINOPHIL / ERYTHROCYTE COUNT / HEMATOCRIT / HEMOGLOBIN / LEUKOCYTE COUNT / LYMPHOCYTE / MEAN CORPUSCULAR HEMOGLOBIN / MEAN CORPUSCULAR HEMOGLOBIN CONCENTRATION / MEAN CORPUSCULAR VOLUME / MONOCYTE / NEUTROPHIL / NUCLEATED RED BLOOD CELLS / PLATELET COUNT: tissue Blood; for ALANINE AMINOTRANSFERASE / ALBUMIN / ALKALINE PHOSPHATASE / ASPARTATE AMINOTRANSFERASE / BLOOD UREA NITROGEN / CARBON DIOXIDE / CHLORIDE / CHOLESTEROL / CREATINE PHOSPHOKINASE / CREATININE / GLUCOSE / LACTATE DEHYDROGENASE / LIPASE / PHOSPHORUS / POTASSIUM / SODIUM / TOTAL BILIRUBIN / TOTAL PROTEIN / URIC ACID: tissue Plasma"}
{"compound": "Cc1ccc(S(=O)(=O)NC(=O)NN2CCCCCC2)cc1", "note": "[TOLAZAMIDE]", "values": [{"measurement": "ABSOLUTE BASOPHIL", "setting": "72 h, time 3 day", "result": 0, "unit": "CELLS/uL"}, {"measurement": "ABSOLUTE EOSINOPHIL", "setting": "72 h, time 3 day", "result": 0, "unit": "CELLS/uL"}, {"measurement": "ABSOLUTE LYMPHOCYTE", "setting": "72 h, time 3 day", "result": 13270.33, "unit": "CELLS/uL"}, {"measurement": "ABSOLUTE MONOCYTE", "setting": "72 h, time 3 day", "result": 328.33, "unit": "CELLS/uL"}, {"measurement": "ABSOLUTE SEGMENTED NEUTROPHIL", "setting": "72 h, time 3 day", "result": 801.33, "unit": "CELLS/uL"}, {"measurement": "BASOPHIL", "setting": "72 h, time 3 day", "result": 0, "unit": "%"}, {"measurement": "EOSINOPHIL", "setting": "72 h, time 3 day", "result": 0, "unit": "%"}, {"measurement": "ERYTHROCYTE COUNT", "setting": "72 h, time 3 day", "result": 5.57, "unit": "x10E6/uL"}, {"measurement": "HEMATOCRIT", "setting": "72 h, time 3 day", "result": 35.93, "unit": "%"}, {"measurement": "HEMOGLOBIN", "setting": "72 h, time 3 day", "result": 13.3, "unit": "G/DL"}, {"measurement": "LEUKOCYTE COUNT", "setting": "72 h, time 3 day", "result": 14.4, "unit": "x10E3/uL"}, {"measurement": "LYMPHOCYTE", "setting": "72 h, time 3 day", "result": 92, "unit": "%"}, {"measurement": "MEAN CORPUSCULAR HEMOGLOBIN", "setting": "72 h, time 3 day", "result": 23.9, "unit": "pg"}, {"measurement": "MEAN CORPUSCULAR HEMOGLOBIN CONCENTRATION", "setting": "72 h, time 3 day", "result": 37.03, "unit": "G/DL"}, {"measurement": "MEAN CORPUSCULAR VOLUME", "setting": "72 h, time 3 day", "result": 64.5, "unit": "fL"}, {"measurement": "MONOCYTE", "setting": "72 h, time 3 day", "result": 2.33, "unit": "%"}, {"measurement": "NEUTROPHIL", "setting": "72 h, time 3 day", "result": 5.67, "unit": "%"}, {"measurement": "NUCLEATED RED BLOOD CELLS", "setting": "72 h, time 3 day", "result": "0 /100WBC"}, {"measurement": "PLATELET COUNT", "setting": "72 h, time 3 day", "result": 1235.33, "unit": "x10E3/uL"}, {"measurement": "ALANINE AMINOTRANSFERASE", "setting": "72 h, time 3 day", "result": 26.33, "unit": "u/L"}, {"measurement": "ALBUMIN", "setting": "72 h, time 3 day", "result": 4.3, "unit": "G/DL"}, {"measurement": "ALKALINE PHOSPHATASE", "setting": "72 h, time 3 day", "result": 233.33, "unit": "u/L"}, {"measurement": "ASPARTATE AMINOTRANSFERASE", "setting": "72 h, time 3 day", "result": 69, "unit": "u/L"}, {"measurement": "BLOOD UREA NITROGEN", "setting": "72 h, time 3 day", "result": 17.67, "unit": "mg/dL"}, {"measurement": "CARBON DIOXIDE", "setting": "72 h, time 3 day", "result": 25, "unit": "mmol/L"}, {"measurement": "CHLORIDE", "setting": "72 h, time 3 day", "result": 106.33, "unit": "MEQ/L"}, {"measurement": "CHOLESTEROL", "setting": "72 h, time 3 day", "result": 46.67, "unit": "mg/dL"}, {"measurement": "CREATINE PHOSPHOKINASE", "setting": "72 h, time 3 day", "result": 172, "unit": "u/L"}, {"measurement": "CREATININE", "setting": "72 h, time 3 day", "result": 0.18, "unit": "mg/dL"}, {"measurement": "GLUCOSE", "setting": "72 h, time 3 day", "result": 142, "unit": "mg/dL"}, {"measurement": "LACTATE DEHYDROGENASE", "setting": "72 h, time 3 day", "result": 80.67, "unit": "u/L"}, {"measurement": "LIPASE", "setting": "72 h, time 3 day", "result": 8, "unit": "u/L"}, {"measurement": "PHOSPHORUS", "setting": "72 h, time 3 day", "result": 9.5, "unit": "mg/dL"}, {"measurement": "POTASSIUM", "setting": "72 h, time 3 day", "result": 5.38, "unit": "MEQ/L"}, {"measurement": "SODIUM", "setting": "72 h, time 3 day", "result": 145.4, "unit": "MEQ/L"}, {"measurement": "TOTAL BILIRUBIN", "setting": "72 h, time 3 day", "result": 0.27, "unit": "mg/dL"}, {"measurement": "TOTAL PROTEIN", "setting": "72 h, time 3 day", "result": 5.8, "unit": "G/DL"}, {"measurement": "URIC ACID", "setting": "72 h, time 3 day", "result": 1.07, "unit": "mg/dL"}, {"measurement": "ABSOLUTE BASOPHIL", "setting": "120 h, time 5 day", "result": 0, "unit": "CELLS/uL"}, {"measurement": "ABSOLUTE EOSINOPHIL", "setting": "120 h, time 5 day", "result": 47.67, "unit": "CELLS/uL"}, {"measurement": "ABSOLUTE LYMPHOCYTE", "setting": "120 h, time 5 day", "result": 13177.33, "unit": "CELLS/uL"}, {"measurement": "ABSOLUTE MONOCYTE", "setting": "120 h, time 5 day", "result": 515.33, "unit": "CELLS/uL"}, {"measurement": "ABSOLUTE SEGMENTED NEUTROPHIL", "setting": "120 h, time 5 day", "result": 1493, "unit": "CELLS/uL"}, {"measurement": "BASOPHIL", "setting": "120 h, time 5 day", "result": 0, "unit": "%"}, {"measurement": "EOSINOPHIL", "setting": "120 h, time 5 day", "result": 0.33, "unit": "%"}, {"measurement": "ERYTHROCYTE COUNT", "setting": "120 h, time 5 day", "result": 6.17, "unit": "x10E6/uL"}, {"measurement": "HEMATOCRIT", "setting": "120 h, time 5 day", "result": 38.2, "unit": "%"}, {"measurement": "HEMOGLOBIN", "setting": "120 h, time 5 day", "result": 14.3, "unit": "G/DL"}, {"measurement": "LEUKOCYTE COUNT", "setting": "120 h, time 5 day", "result": 15.23, "unit": "x10E3/uL"}, {"measurement": "LYMPHOCYTE", "setting": "120 h, time 5 day", "result": 86.67, "unit": "%"}, {"measurement": "MEAN CORPUSCULAR HEMOGLOBIN", "setting": "120 h, time 5 day", "result": 23.2, "unit": "pg"}, {"measurement": "MEAN CORPUSCULAR HEMOGLOBIN CONCENTRATION", "setting": "120 h, time 5 day", "result": 37.47, "unit": "G/DL"}, {"measurement": "MEAN CORPUSCULAR VOLUME", "setting": "120 h, time 5 day", "result": 61.93, "unit": "fL"}, {"measurement": "MONOCYTE", "setting": "120 h, time 5 day", "result": 3.33, "unit": "%"}, {"measurement": "NEUTROPHIL", "setting": "120 h, time 5 day", "result": 9.67, "unit": "%"}, {"measurement": "NUCLEATED RED BLOOD CELLS", "setting": "120 h, time 5 day", "result": "0 /100WBC"}, {"measurement": "PLATELET COUNT", "setting": "120 h, time 5 day", "result": 1206.33, "unit": "x10E3/uL"}, {"measurement": "ALANINE AMINOTRANSFERASE", "setting": "120 h, time 5 day", "result": 28, "unit": "u/L"}, {"measurement": "ALBUMIN", "setting": "120 h, time 5 day", "result": 4.7, "unit": "G/DL"}, {"measurement": "ALKALINE PHOSPHATASE", "setting": "120 h, time 5 day", "result": 319.67, "unit": "u/L"}, {"measurement": "ASPARTATE AMINOTRANSFERASE", "setting": "120 h, time 5 day", "result": 70.67, "unit": "u/L"}, {"measurement": "BLOOD UREA NITROGEN", "setting": "120 h, time 5 day", "result": 19, "unit": "mg/dL"}, {"measurement": "CARBON DIOXIDE", "setting": "120 h, time 5 day", "result": 25.33, "unit": "mmol/L"}, {"measurement": "CHLORIDE", "setting": "120 h, time 5 day", "result": 105.33, "unit": "MEQ/L"}, {"measurement": "CHOLESTEROL", "setting": "120 h, time 5 day", "result": 58.33, "unit": "mg/dL"}, {"measurement": "CREATINE PHOSPHOKINASE", "setting": "120 h, time 5 day", "result": 168.67, "unit": "u/L"}, {"measurement": "CREATININE", "setting": "120 h, time 5 day", "result": 0.2, "unit": "mg/dL"}, {"measurement": "GLUCOSE", "setting": "120 h, time 5 day", "result": 138.67, "unit": "mg/dL"}, {"measurement": "LACTATE DEHYDROGENASE", "setting": "120 h, time 5 day", "result": 114, "unit": "u/L"}, {"measurement": "LIPASE", "setting": "120 h, time 5 day", "result": 9.33, "unit": "u/L"}, {"measurement": "PHOSPHORUS", "setting": "120 h, time 5 day", "result": 13.07, "unit": "mg/dL"}, {"measurement": "POTASSIUM", "setting": "120 h, time 5 day", "result": 6.1, "unit": "MEQ/L"}, {"measurement": "SODIUM", "setting": "120 h, time 5 day", "result": 149.93, "unit": "MEQ/L"}, {"measurement": "TOTAL BILIRUBIN", "setting": "120 h, time 5 day", "result": 0.2, "unit": "mg/dL"}, {"measurement": "TOTAL PROTEIN", "setting": "120 h, time 5 day", "result": 6.57, "unit": "G/DL"}, {"measurement": "URIC ACID", "setting": "120 h, time 5 day", "result": 2.17, "unit": "mg/dL"}]}
